How the values were obtained:
Assay in all cases: Test Example 11: herbicidal effect test by soil treatment in paddy field
Type in all cases: in vivo
Conditions in all cases: 120 g/10a active ingredient, 14 days after treatment
[1] = test system: Lindernia pyxidaria
From the text: (§1) A Wagner pot having an area of 1/10000 are was filled with paddy field soil and after adding water, a chemical fertilizer (N:P:K=17:17:17) was mixed, followed by puddling. Thereafter, 30 grains of each of Echinochloa crus-galli, broad-leaved weed (Lindernia pyxidaria, Monochoria vaginalis) and Scirpus juncoides seeds were sown to a depth of 0 to 1 cm. Immediately after the sowing, the pot was flooded, and the depth of water was kept at about 3 cm. The pot was subsequently managed in a glass greenhouse. Just after that, an emulsifiable concentrate prepared according to Formulation Example 15 by using the compound shown in Table 9 below was diluted with water, and a predetermined amount of the water-diluted formulation was added dropwise. The application rate of the active ingredient, by conversion, corresponded to 120 g per 10 are.
(§2) This test was performed with two replications per one formulation concentration plot, and 14 days after the formulation treatments, the weed suppression rate (%) was determined according to the following equation (Math. 2). Weed suppression rate (%)=(1−average dry weight (g) of plants in treated plots/average dry weight (g) of plants in untreated plots)×100 [Math. 2]

[2] = test system: Echinochloa crus-galli
From the text: as §1, §2

[3] = test system: Scirpus juncoides
From the text: as §1, §2

[4] = test system: Monochoria vaginalis
From the text: as §1, §2

| Structure (SMILES) | Weed suppression rate (%) Lindemia pyxidaria [1] | Weed suppression rate (%) Echinochloa crus-galli [2] | Weed suppression rate (%) Scirpus juncoides [3] | Weed suppression rate (%) Monochoria vaginalis [4] |
| --- | --- | --- | --- | --- |
| Cc1ccc(S(=O)(=O)n2ncn(C(=O)N(c3ccc(Cl)cc3Br)C(C)C)c2=O)cc1 [Compound 11-649] | 70% | 90% | 60% | 60% |
| CC(C)N(C(=O)n1cnn(S(=O)(=O)c2cccc(C(F)(F)F)c2)c1=O)c1c(F)cc(F)cc1F [Compound 11-727] | 80% | 90% | 80% | 60% |
| Cc1cc(C)c(S(=O)(=O)n2ncn(C(=O)N(c3ccc(C(F)(F)F)cc3F)C(C)C)c2=O)c(C)c1 [Compound 11-880] | 80% | 80% | 30% | 100% |
| CCN(CC)C(=O)n1cnn(S(=O)(=O)c2ccc(Cl)cc2)c1=O [Compound 11-576] | 0% | 40% | 0% | 0% |
| Cc1cc(Cl)ccc1N(C(=O)n1cnn(S(=O)(=O)c2ccc(F)cc2)c1=O)C(C)C [Compound 11-490] | 80% | 90% | 90% | 80% |
| Cc1cc(C)c(S(=O)(=O)n2ncn(C(=O)N(c3c(F)cccc3F)C(C)C)c2=O)c(C)c1 [Compound 11-865] | 70% | 80% | 70% | 70% |
| CC(C)N(C(=O)n1cnn(S(=O)(=O)c2ccc(Cl)cc2)c1=O)c1ccc(F)cc1Cl [Compound 11-595] | 90% | 90% | 60% | 70% |
| CC(C)N(C(=O)n1cnn(S(=O)(=O)c2cccc(Cl)c2)c1=O)c1cccc(F)c1F [Compound 11-549] | 90% | 80% | 100% | 100% |
| CC(C)N(C(=O)n1cnn(S(=O)(=O)c2ccc(C(C)(C)C)cc2)c1=O)c1ccc(Br)cc1Cl [Compound 11-693] | 60% | 80% | 60% | 60% |
| CC(C)N(C(=O)n1cnn(S(=O)(=O)c2c(F)cccc2F)c1=O)c1ccc(C(F)(F)F)cc1F [Compound 11-790] | 90% | 80% | 90% | 30% |
| CC(C)N(C(=O)n1cnn(S(=O)(=O)c2cccc(F)c2)c1=O)c1ccc(F)cc1Cl [Compound 11-445] | 70% | 100% | 100% | 60% |

Reference: patent US11076595B2, “1-(n,n-disubstituted carbamoyl) 4-(substituted sulfonyl)triazolin-5-one derivative, 4-(n,n-disubstituted carbamoyl) 1-(substituted sulfonyl)triazolin-5-one derivative, and herbicide containing said derivative as active ingredient” (HOKKO CHEMICAL INDUSTRY CO., LTD., priority 2017, dated 2021)
